The term inhibition denotes the change of the read-out against control, counted positive when it falls. As a reminder, the half-life is the time in which the quantity being followed falls by half. The term EC50 denotes the concentration that produces a half-maximal response.

Series [1] deals with T1, hERG (Homo sapiens, UniProt Q12809). The experiment in a line: Inhibition of hERG expressed in HEK293 cells at 10 uM by patch-clamp assay relative to control. The settings on record: HEK293 cells expressing hERG. It is filed as toxicity, cell-based. (In general: hERG is a cardiac potassium channel; its block is linked to QT prolongation.)
Series [2] deals with HepG2. Kind of series: Inhibition of lipid metabolism in human HepG2 cells assessed as increase in p-AMPK/AMPK ratio at 10 uM incubated for 24 hrs by Western blot analysis. It is filed as functional, cell-based. In general terms: In western blotting, separated proteins are transferred to a membrane and probed.
A short description of series [3]: Microsomal stability in human liver microsomes assessed as half life at 1 uM incubated for 60 mins by HPLC-MS/MS analysis. It is filed as ADME, Microsome.
In another series the test system is MDA-MB-231. The experiment in a line: Cytotoxicity against human MDA-MB-231 cells assessed as reduction in cell viability at 10 uM incubated for 72 to 96 hrs by Celltiter-Glo assay. Particulars: mda-mb-231, 10 µM, time 72-96 hrs. It is filed as toxicity, cell-based. A general note: Cellular ATP, detected with luciferase, serves as a proxy for viable cell number.

In series [4] the target is T2, Thyroid hormone receptor beta (Homo sapiens, UniProt P10828).
T2 sequence (P10828 whole entry): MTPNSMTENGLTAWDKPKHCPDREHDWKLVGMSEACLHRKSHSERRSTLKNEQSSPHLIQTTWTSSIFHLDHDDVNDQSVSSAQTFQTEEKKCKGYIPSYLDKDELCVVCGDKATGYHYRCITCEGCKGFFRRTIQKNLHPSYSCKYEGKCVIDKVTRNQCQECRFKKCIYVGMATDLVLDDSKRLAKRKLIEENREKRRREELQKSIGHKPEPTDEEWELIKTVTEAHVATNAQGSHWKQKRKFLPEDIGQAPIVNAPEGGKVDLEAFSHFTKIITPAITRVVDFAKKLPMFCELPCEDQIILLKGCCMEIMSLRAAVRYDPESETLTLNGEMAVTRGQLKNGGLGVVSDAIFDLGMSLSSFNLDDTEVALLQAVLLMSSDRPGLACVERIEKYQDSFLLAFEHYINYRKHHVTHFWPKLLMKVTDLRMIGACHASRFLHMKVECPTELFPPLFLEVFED
The experiment in a line: Agonist activity at human TR beta LBD (202 to 461 residues) expressed in Escherichia coli BL21 (DE3) cells assessed as induction of N-terminal biotinylated coactivator SRC2-3 peptide recruitment by alphascreen assay.

The test system of the next series is A549. Kind of series: Cytotoxicity against human A549 cells assessed as reduction in cell viability at 10 uM incubated for 72 to 96 hrs by Celltiter-Glo assay. It is filed as toxicity, cell-based. Particulars: a549, 10 µM, time 72-96 hrs.
The subject of series [5] is HepG2. Kind of series: Inhibition of lipid metabolism in human HepG2 cells assessed as reduction in total lipid accumulation at 10 uM incubated for 24 hrs by oil red O staining based inverted microscopic analysis. It is filed as functional, cell-based.
The nature of series [6]: Microsomal stability in rat liver microsomes assessed as half life at 1 uM incubated for 60 mins by HPLC-MS/MS analysis. It is filed as ADME, Microsome.
The target of series [7] is T1, hERG. The experiment in a line: Inhibition of hERG expressed in HEK293 cells at 1 uM by patch-clamp assay relative to control. It is filed as toxicity, cell-based. The settings on record: HEK293 cells expressing hERG.
The nature of series [8]: Microsomal stability in rat liver microsomes assessed as intrinsic clearance at 1 uM incubated for 60 mins by HPLC-MS/MS analysis. Particulars: read-out: CLH. It is filed as ADME, Microsome.

Calls of active or inactive are those of the source. The rule behind the calls is not given here. Bounds are passed on as bounds.

T1 sequence (Q12809 whole entry): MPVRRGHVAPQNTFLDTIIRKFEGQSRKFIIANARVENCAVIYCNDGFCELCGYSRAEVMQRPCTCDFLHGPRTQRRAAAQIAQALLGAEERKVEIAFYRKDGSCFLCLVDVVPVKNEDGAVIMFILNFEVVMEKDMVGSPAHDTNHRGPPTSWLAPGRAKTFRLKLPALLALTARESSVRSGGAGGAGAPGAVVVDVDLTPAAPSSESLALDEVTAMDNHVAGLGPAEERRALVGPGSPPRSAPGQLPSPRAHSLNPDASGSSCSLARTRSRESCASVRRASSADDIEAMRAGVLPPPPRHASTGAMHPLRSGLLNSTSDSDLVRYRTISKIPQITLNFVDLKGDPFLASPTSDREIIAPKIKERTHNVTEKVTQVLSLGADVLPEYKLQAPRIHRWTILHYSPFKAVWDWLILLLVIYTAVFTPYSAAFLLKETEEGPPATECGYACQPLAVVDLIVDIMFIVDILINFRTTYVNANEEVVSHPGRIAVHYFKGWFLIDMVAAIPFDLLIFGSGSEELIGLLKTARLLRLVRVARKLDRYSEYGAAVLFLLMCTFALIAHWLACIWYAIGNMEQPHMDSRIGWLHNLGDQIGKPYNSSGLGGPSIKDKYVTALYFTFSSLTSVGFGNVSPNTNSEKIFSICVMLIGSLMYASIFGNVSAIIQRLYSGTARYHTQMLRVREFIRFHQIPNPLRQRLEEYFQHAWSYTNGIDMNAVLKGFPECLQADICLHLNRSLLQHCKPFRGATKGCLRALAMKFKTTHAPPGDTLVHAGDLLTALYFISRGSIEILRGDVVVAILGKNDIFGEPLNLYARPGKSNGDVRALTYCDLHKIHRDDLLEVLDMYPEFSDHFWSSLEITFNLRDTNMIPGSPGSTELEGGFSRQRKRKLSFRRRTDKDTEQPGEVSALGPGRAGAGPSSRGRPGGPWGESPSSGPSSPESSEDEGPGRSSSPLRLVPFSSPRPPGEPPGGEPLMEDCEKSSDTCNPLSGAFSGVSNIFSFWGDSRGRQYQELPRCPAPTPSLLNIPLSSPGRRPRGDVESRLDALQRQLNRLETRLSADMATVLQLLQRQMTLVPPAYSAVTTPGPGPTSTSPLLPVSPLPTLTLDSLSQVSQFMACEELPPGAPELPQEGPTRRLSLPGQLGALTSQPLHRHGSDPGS

`COc1cc(F)cc(C(=O)c2cc(C)c(Oc3ccc4c(O)c(C(=O)NCC(=O)O)nc(OC)c4c3)c(C)c2)c1` yielded an inhibition at 10 µM at hERG [1] of 9.13%. The inhibition entry with HepG2 [2] and in the series on HepG2 [5] was “Active” each time. Moreover, the half-life at 1 µM in series [3] and in series [6] was above 2 h each time. In addition, the Activity entry in the series with MDA-MB-231 and in the series with A549 was “Non-Toxic” in each case. Further, the EC50 in [4] stood at 0.021 µM. The inhibition at 1 µM on hERG [7] stood at 4.19%. In series [8], the CLint scaled at 1 µM is below 45.5 mL/min/kg.

Values taken from ChEMBL document CHEMBL5154903 (J Med Chem, 2022).
